Reference: paper PMC10350928 (Journal of Medicinal Chemistry, 2023)

What was measured:
WT c-MET [1] = target: T1, WT c-MET (Homo sapiens, UniProt P08581); type: binding; conditions: Table 1; LLE = pKd – log D
Rat hepatocytes = test: Rat hepatocyte Clint; conditions: for RH: rat hepatocytes
Log D shake-flask method = conditions: octanol/water, pH 7.4, logD, Table 1, octanol and water at pH7.4
Human hepatocytes = test: Human hepatocyte Clint; conditions: Table 4
P-gp (MDR1) = test: MDR1-MDCK permeability and efflux; conditions: dog
[2] = Rat plasma pharmacokinetics; conditions: male, Han Wistar, iv, 0.5 mg/kg
WT c-MET [3] = target: T1, WT c-MET; type: biochemical; conditions: Table 3; LLE = pIC50 – log D

T1 sequence (P08581 25-1390): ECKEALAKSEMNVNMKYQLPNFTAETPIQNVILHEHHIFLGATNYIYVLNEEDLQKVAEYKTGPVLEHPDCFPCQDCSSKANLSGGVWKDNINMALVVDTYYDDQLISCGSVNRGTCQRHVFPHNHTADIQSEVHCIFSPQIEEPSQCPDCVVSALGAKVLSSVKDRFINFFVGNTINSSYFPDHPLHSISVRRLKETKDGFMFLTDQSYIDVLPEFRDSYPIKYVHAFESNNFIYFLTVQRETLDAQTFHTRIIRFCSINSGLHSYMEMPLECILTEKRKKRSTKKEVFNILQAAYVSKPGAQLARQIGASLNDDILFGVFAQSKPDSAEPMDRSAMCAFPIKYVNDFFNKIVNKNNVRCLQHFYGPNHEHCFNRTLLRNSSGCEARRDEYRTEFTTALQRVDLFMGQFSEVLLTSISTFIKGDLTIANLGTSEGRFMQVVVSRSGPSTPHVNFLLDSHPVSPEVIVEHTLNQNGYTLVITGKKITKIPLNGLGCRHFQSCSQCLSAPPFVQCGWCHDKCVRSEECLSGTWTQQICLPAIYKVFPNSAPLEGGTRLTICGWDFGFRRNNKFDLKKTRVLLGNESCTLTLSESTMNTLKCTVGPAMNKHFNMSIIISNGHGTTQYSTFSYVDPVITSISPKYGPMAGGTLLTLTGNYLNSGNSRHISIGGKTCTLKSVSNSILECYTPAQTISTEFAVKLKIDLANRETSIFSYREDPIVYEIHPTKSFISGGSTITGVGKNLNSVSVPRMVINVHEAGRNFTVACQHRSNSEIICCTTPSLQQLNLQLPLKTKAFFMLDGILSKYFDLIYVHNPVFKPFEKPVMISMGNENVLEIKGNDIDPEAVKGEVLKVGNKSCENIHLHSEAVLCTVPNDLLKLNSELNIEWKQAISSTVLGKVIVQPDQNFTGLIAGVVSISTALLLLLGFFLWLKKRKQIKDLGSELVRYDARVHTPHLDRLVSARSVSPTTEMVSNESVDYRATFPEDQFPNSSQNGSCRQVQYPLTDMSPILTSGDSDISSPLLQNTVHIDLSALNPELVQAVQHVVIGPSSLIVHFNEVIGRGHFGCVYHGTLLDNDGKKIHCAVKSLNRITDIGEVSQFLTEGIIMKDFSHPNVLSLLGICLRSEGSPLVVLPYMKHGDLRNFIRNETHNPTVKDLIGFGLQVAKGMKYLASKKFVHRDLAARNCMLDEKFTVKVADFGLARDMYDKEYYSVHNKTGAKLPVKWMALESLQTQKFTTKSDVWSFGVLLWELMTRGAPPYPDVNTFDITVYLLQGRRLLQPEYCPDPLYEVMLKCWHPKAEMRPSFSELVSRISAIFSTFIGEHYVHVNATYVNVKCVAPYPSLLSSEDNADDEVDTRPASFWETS

SMILES	SPR assay LLE WT (WT c-MET [1])	RH (Rat hepatocytes; Table 1) [μL/min/10^6 cells]	logD (Log D shake-flask method)	Hepatocytes Human (Human hepatocytes) [μL/min/10^6 cells]	efflux ratio at 2 h, 10 μM (P-gp (MDR1))	RH (Rat hepatocytes; Table 3) [μL/min/10^6 cells]	Hepatocytes Rat (Rat hepatocytes; Table 4) [μL/min/10^6 cells]	clearance [2] [mL/min/kg]	ADP-Glo assay LLE WT (WT c-MET [3])
CC(c1ccc(F)cc1)n1cc(-c2cc(F)cc(F)c2)c(=O)[nH]c1=O (stereo not drawn) [Compound 6, 5-(3,5-Difluorophenyl)-1-(1-(4-fluorophenyl)ethyl)pyrimidine-2,4(1H,3H)-dione]	2.6	26.8	3.3						
C[C@@H](c1ccc(F)cc1)n1cc(-c2cc(F)cc3cn[nH]c23)c(=O)[nH]c1=O [Compound 27, (S)-5-(5-Fluoro-1H-indazol-7-yl)-1-(1-(4-fluorophenyl)ethyl)pyrimidine-2,4(1H,3H)-dione]				1.81	< 7	14.8	14.8	74	4.1
